Test results taken from patent publication US5728686A, “Alkylxanthine phosphonates and alkylxanthine phosphine oxides and their use as pharmaceuticals” (Hoechst Aktiengesellschaft, priority 1996, dated 1998).
Converted amounts (≈) assume the structure as drawn.

What was measured:
[1] = test system: isolated guinea pig trachea, agonist substance P; test: antagonist of substance P-induced contraction of isolated guinea pig trachea; format: cell-based; conditions: Cavia porcellus, individual doses, 37° C., read-out: Anticontractile action (trachea), SP antagonism: concentration range for dilatation corresponding to ED50 range
From the text: (§1) 3. Activity as antagonist of the contraction of isolated guinea pig trachea
(§2) The compounds of the formula I are used as antagonists of the contraction of isolated guinea pig trachea. The agonists employed were PGF2α (Upjohn, Germany), calcium ionophore A23187 (Calbiochem, Bad Soden, Germany), and substance P (American Peptide Comp., USA):
The antagonism is possible on the one hand due to specific receptor antagonists, and on the other hand also due to inhibition of the subsequent signal pathway. Preparations which directly or indirectly increase the intracellular concentration of cyclic nucleotides in particular show spasmolytic properties here.
(§3) Preparation of the organ sections and experimental procedure:
(§4) The guinea pig is sacrificed by means of terminal laughing gas anaesthesia. The trachea is exposed along its entire length and cut into 15 individual cartilage rings. 5 rings in each case are tied together to give a chain and fixed in the organ bath under a preload of 3 g. After an equilibration time of 45 minutes, a contraction is produced using the agonist. The antagonist (test preparation) is added cumulatively on the plateau of the maximum. Evaluation is carried out in % force change relative to the contraction maximum. The experimental procedure is carried out at 37° C.; the physiological nutrient solution used is a modified Krebs-Henseleit solution through which is bubbled 95% by volume of O2, 5% by volume of CO2.
(§5) Experimental animals: albino guinea pigs (Hattersheim Animal Breeding Institute, Kastengrund, Germany), weight: 200 to 300 g, sex male or female.
(§6) Vehicle: double-distilled water, ethanol or isopropanol; administration: into the organ bath number of administration: cumulative, in SP individual doses
(§7) All numerical values are indicated in the unit μg/ml and relate to the concentration range of the tested compound of the formula I according to the invention (see example numbers in Table 1) which is necessary in order to cause a dilatation which corresponds to the ED50 range.

[2] = test system: isolated guinea pig trachea, agonist calcium ionophore A23187; test: antagonist of calcium ionophore A23187-induced contraction of isolated guinea pig trachea; format: cell-based; conditions: Cavia porcellus, 37° C., read-out: Anticontractile action (trachea), Ca ionophore: concentration range for dilatation corresponding to ED50 range
From the text: as §1, §2
b) Calcium ionophore A23187 (Calbiochem, Bad Soden) acts by increased uptake of calcium ions, and an activation of all calcium-dependent signal cascades in the cell. Lipoxygenase inhibitors, in particular, and generally antiinflammatory substances show effects in this model.
as §3, §4, §5, §6, §7

[3] = test system: isolated guinea pig trachea, agonist PGF2α; test: antagonist of PGF2α-induced contraction of isolated guinea pig trachea; format: cell-based; conditions: Cavia porcellus, 37° C., read-out: Anticontractile action (trachea), PGF2α: concentration range for dilatation corresponding to ED50 range
From the text: as §1, §2
Inhibition of contractions which are induced by this cyclooxygenase product is only possible by competitive antagonism at the receptor or of the subsequent signal pathway.
as §3, §4, §5, §6, §7

[4] = test system: isolated guinea pig lung strips, Platelet activating factor (PAF); test: antagonist of PAF-induced contraction of isolated guinea pig lung strips; format: cell-based; conditions: Cavia porcellus, read-out: Anticontractile action (lung), PAF: concentration range corresponding to the IC50 value
From the text: (§8) 4. Activity as an antagonist of the contraction of isolated guinea pig lung strips
(§9) The test carried out is based on the same principle as the test indicated in the pharmacological test 3; however, lung strips are used here.
as §3
(§10) The guinea pig is sacrificed under laughing gas anaesthesia. The entire pulmonary tract is exposed starting from the trachea. The lobes of the lung are cut in a circular fashion such that 3 mm wide strips are formed. The strips of the upper lobes are divided in order to obtain a total of six approximately equal size strips. The strips are suspended in the organ baths under a preload of 4 g. The nutrient solutions used are modified Krebs Henseleit solutions. When using "Platelet activating factor" (PAF) as an […], the composition of this solution corresponds to that for the agonist SP in "Test 3"; for the agonist LTD4 a Krebs Henseleit solution as in the case of the agonist KCl (Test 3) is used. 95% by volume O2, 5% by volume CO2 is used for bubbling through the bath; the bath temperature is 37° C. The experimental procedure is carried out in a therapeutically cumulative methodology, using the dosage graduations 1, 3, 6 and 10 μg/ml.
(§11) The experimental animals, organ bath, vehicles and manner of administration correspond to that stated in pharmacological test 3.
(§12) All numerical values are indicated in the unit μg/ml and relate to the concentration range of tested compound of the formula I (see example numbers in Table 1) which is necessary in order to cause a contraction which corresponds to the IC50 value.

[5] = test system: muscle group (gastrocnemius, plantaris and soleus) of the immobilized right rear extremity; test: rat muscle function test: direct electrical stimulation of muscle group after 3 weeks' immobilization; format: in vivo, male Wistar rats; conditions: oral, 1x per day for 3 weeks, as a rule 25 mg/kg, ≤-12% classified as active; for Force (force under the contraction curve, right/left difference): isometric stimulation, control difference approx. 25%; for Work (performed work, right/left difference): isotonic stimulation, control approx. -25%
From the text: (§13) 1. Activity in the rat muscle function test
(§14) Male Wistar rats (body weight about 300 g) were kept under standard conditions with feed and water ad libitum. The right rear extremity was immobilized by fitting a kind of "shoe" to the animals under short-term anaesthesia. Two ergonomically fitted halves of the "shoe" were cast from a liquid plastic material which is also used for the production of dental prostheses, these were put onto the animal under brief anaesthesia and joined with the aid of a wire. The material is light but hard, so that the animals cannot gnaw the material, and the "shoe" can be opened at any time to examine the condition of the immobilized extremity. The two halves were moreover padded out with chamois leather in order to avoid compressions and possible injuries due to rubbing. The system also has the advantage that the angle of immobilization is standardized in all animals; this would not be possible with a plaster cast. The chosen angle allows the animals to take up a normal sitting position despite the "shoe" and also to carry the body weight using this extremity. Only complete stretching or bending of the leg is impossible.
(§15) After 3 weeks' immobilization of the right rear extremity and simultaneous oral administration of test preparations (1× per day using a stomach tube; as a rule 25 mg/kg of body weight, in carboxymethylcellulose, the animals were weighed and anaesthetized with pentobarbital (35 mg/kg i.p.). Functional parameters were measured during direct electrical stimulation of a muscle group (gastrocnemius, plantaris and soleus). This muscle group, merely called "muscle" in the following, was exposed at the ankle tendon and tied to a force transducer via the tendon.
To determine the contractile force, the muscles were stimulated isometrically, i.e. a preload of 0.5N was applied and the muscle was stimulated by means of a series of electrical pulses, which led to a maximum contraction, every 0.7 sec for 80 msec for a period of 15 min. […] The area under this contraction curve was evaluated and the difference in percent between the right atrophic and left normal muscle compared (force under the contraction curve as difference in percent (Δ%)). The difference in the control group is approximately 25%.
An isotonic muscle stimulation was used to determine the performed work of the muscle over time. In this type of measurement, the shortening of the muscle during contraction is used as a basis. To this end, a preload which corresponds to the body weight was applied to the muscles. A series of stimulation pulses (80 msec) were triggered every 3 sec and the muscle was stimulated for 15 min. The data (contraction force and distance travelled) were converted to the work performed in the unit J using an automated system. The difference in the work performed between the immobilized atrophic and the normal muscle in the control animals was approximately -25%.
Values which are positive indicate that the functional parameters of the immobilized muscle were better than those of the contralateral normal muscle.

[6] = test system: Endotoxin (LPS) from Salmonella abortus equi; test: effect on endotoxin fatality (LPS-induced septic shock); format: in vivo, female NMRI mice; conditions: 25 mg/kg i.p. at the same time as LPS 60 mg/kg i.p.; 72 hours; vs placebo control
Method: 2. Test for effect on endotoxin fatality
Individual injections of lipopolysaccharide (LPS), from gram-negative bacteria, lead via a series of various symptoms to septic shock, which usually turns out to be fatal. Endotoxin (LPS) from Salmonella abortus equi in a dose of 60 mg/kg i.p. leads to shock and to death with at most 72 h p.a. (the dose of 60 mg/kg corresponds to approximately 1.20 mg of LPS/animal).
The experimental animals used are female NMRI mice from the Hoechst AG/Hattersheim animal breeding unit having a body weight of 22 to 24 g.
The test substances administered intraperitoneally (i.p.) in an administration volume of 10 ml/kg at the same time as the LPS. The number of surviving animals after 72 hours' LPS administration is indicated in comparison to a placebo control. The number of tested animals per group is 5; dose 25 mg/kg.

phosphodiesterase III = test: inhibition of phosphodiesterase III activity; format: biochemical; conditions: at 100 μM
Method: 5. Inhibition of phosphodiesterase III activity
The test is carried out using phosphodiesterase from Boehringer Mannheim (Mannheim, Germany), Order No. 108 243 according to the method of T. SAEKI, I. SAITO, Biochem. Pharm. 46, No. 5, […], pages 833-839.
All numerical values are indicated in % inhibition of the enzyme activity at 100 μM of the corresponding compound of the formula I.

[7] = test system: isolated guinea pig lung strips, leukotriene D4 (LTD4); test: antagonist of LTD4-induced contraction of isolated guinea pig lung strips; format: cell-based; conditions: Cavia porcellus, read-out: Anticontractile action (lung), LTD4: concentration range corresponding to the IC50 value
From the text: as §8, §9, §3, §10, §11, §12

soleus muscle = test: rat muscle function test: muscle weight (atrophy of immobilized extremity); format: in vivo, male Wistar rats; conditions: oral, 1x per day for 3 weeks, as a rule 25 mg/kg, difference ≤25% classified as an effect
From the text: as §13, §14
In spite of this, a significant decrease in the skeletal muscle mass (atrophy) of the immobilized extremity occurred, to be precise up to -35% in comparison with the contralateral nonimmobilized rear extremity. As the soleus muscle was the most severely affected, the changes in muscle weight after administration of preparation shown in Table 1 relate to this muscle. A difference of ≤25% between the right immobilized and left non-immobilized rear extremity was classified as an effect.
as §15

Compound | EC50 [1] [µg/mL] | EC50 [2] [µg/mL] | EC50 [3] [µg/mL] | IC50 [4] [µg/mL] | Force (force under the contraction curve, right/left difference) [5] | Work (performed work, right/left difference) [5] | Inhibition of mortality [6] [%] | PDE III Inhibition (phosphodiesterase III) [%] | IC50 [7] [µg/mL] | Muscle weight (right/left difference) (soleus muscle)
CCOP(=O)(CCCCn1cnc2c1c(=O)n(CC)c(=O)n2C)OCC [Example 4, Diethyl [4-(1-ethyl-3-methylxanthin-7-yl)butyl]phosphonate] | 10 to 30 (≈ 25.9 to 77.6 µM) | > 10 | > 10 | 1 to 3 (≈ 2.59 to 7.76 µM) |  |  |  |  |  | 
CCOP(=O)(CCCn1c(=O)c2c(ncn2CC)n(C)c1=O)OCC [Example 34, Diethyl [3-(7-ethyl-3-methylxanthin-1-yl)propyl]phosphonate] |  |  |  |  | -5 Δ % | -11 Δ % | 60 | 82 |  | 
CCCCn1cnc2c1c(=O)n(CCCP(=O)(OCC)OCC)c(=O)n2CCCC [Example 40, Diethyl [3-(3,7-dibutylxanthin-1-yl)propyl]phosphonate] |  |  |  |  |  |  | 100 |  |  | 
CCCn1cnc2c1c(=O)n(CCCP(=O)(OCC)OCC)c(=O)n2C1CC1 [Example 39] |  |  |  |  |  |  | 100 | 65 | 3 to 6 (≈ 7.27 to 14.5 µM) | 
CCOP(=O)(CCCCn1c(=O)c2[nH]cnc2n(C)c1=O)OCC [Example 24, Diethyl [4-(3-methylxanthin-1-yl)-butyl]phosphonate] | 30 to 60 (≈ 83.7 to 167 µM) |  | > 10 |  | +6 Δ % | -5 Δ % | 100 |  |  | -20 Δ %
CCCn1cnc2c1c(=O)n(CCCCP(=O)(OCC)OCC)c(=O)n2CC [Example 38, Diethyl [4-(3-ethyl-7-propylxanthin-1-yl)butyl]phosphonate] | 10 to 30 (≈ 24.1 to 72.4 µM) | 10 (≈ 24.1 µM) | > 10 | 1 to 3 (≈ 2.41 to 7.24 µM) | -10 Δ % | -3 Δ % | 60 |  |  | 
CCOP(=O)(CCCCn1c(=O)c2c(ncn2Cc2ccccc2)n(C)c1=O)OCC [Example 23, Diethyl [4-(7-benzyl-3-methylxanthin-1-yl)butyl]phosphonate] | 10 to 30 (≈ 22.3 to 66.9 µM) | > 10 | > 10 | 1 to 3 (≈ 2.23 to 6.69 µM) |  |  |  | 65 | 1 to 3 (≈ 2.23 to 6.69 µM) | 
CCOP(=O)(CCCn1c(=O)c2c(ncn2CCOC)n(C)c1=O)OCC [Example 35, Diethyl [3-(7-methoxyethyl-3-methylxanthin-1-yl)propyl]phosphonate] | 30 to 60 (≈ 74.6 to 149 µM) | > 10 |  | 3 to 6 (≈ 7.46 to 14.9 µM) |  |  |  |  |  | 
CCOP(=O)(CCCCn1c(=O)c2c(ncn2CC)n(C)c1=O)OCC [Example 30, Diethyl [4-(7-ethyl-3-methylxanthin-1-yl)butyl]phosphonate] | 10 to 30 (≈ 25.9 to 77.6 µM) | 10 (≈ 25.9 µM) | > 10 | 3 to 6 (≈ 7.76 to 15.5 µM) | +2 Δ % | +5 Δ % |  |  | 6 to 10 (≈ 15.5 to 25.9 µM) | 0 Δ %
